This note sets out measurements from patent publication US7012088B2, “Indolone oxazolidinones and derivatives thereof” (Pharmacia & Upjohn Company, priority 2003, dated 2006).

Values after ≈ are worked out from the molar mass of the structure shown.

For data set [1], the system named is S. pneumoniae SPNE 9912. The experiment in a line: MIC by standard agar dilution method, S. pneumoniae. Type of data set: cell-based. As to conditions: Streptococcus pneumoniae, SPNE9912, Mueller Hinton agar, overnight at 35° C. The source says:
(§1) The oxazolidinone antibacterial agents of this invention have useful activity against a variety of organisms. The in vitro activity of compounds of this invention can be assessed by standard testing procedures such as the determination of minimum inhibitory concentration (MIC) by agar dilution as described in “Approved Standard. Methods for Dilution Antimicrobial Susceptibility Tests for Bacteria That Grow Aerobically”, 3rd. ed., published 1993 by the National Committee for Clinical Laboratory Standards, Villanova, Pa., USA. The in vitro MICs of test compounds were determined by a standard agar dilution method. A stock drug solution of each analog was prepared in the preferred solvent, usually DMSO:H2O (1:3). Serial 2-fold dilutions of each sample are made using 1.0 ml aliquots of sterile distilled water. To each 1.0 ml aliquot of drug was added 9 ml of molten Mueller Hinton agar medium. The drug-supplemented agar was mixed, poured into 15×100 mm petri dishes, and allowed to solidify and dry prior to inoculation. Vials of each of the test organisms are maintained frozen in the vapor phase of a liquid nitrogen freezer. Test cultures are grown overnight at 35° C. on the medium appropriate for the organism. Colonies are harvested with a sterile swab, and cell suspensions are prepared in Trypticase Soy broth (TSB) to equal the turbidity of a 0.5 McFarland standard. A 1:20 dilution of each suspension was made in TSB. The plates containing the drug supplemented agar are inoculated with a 0.001 ml drop of the cell suspension using a Steers replicator, yielding approximately 10^4 to 10^5 cells per spot. The plates are incubated overnight at 35° C. Following incubation the Minimum Inhibitory Concentration (MIC μg/ml), the lowest concentration of drug that inhibits visible growth of the organism, was read and recorded.

Data set [2] deals with S. aureus SAUR 9213. The experiment in a line: MIC by standard agar dilution method, S. aureus. Type of data set: cell-based. As to conditions: Staphylococcus aureus, SAUR9213, Mueller Hinton agar, overnight at 35° C.
Source text: as §1
(In general: Agar dilution tests growth on a series of plates holding different concentrations.)

What is called MIC is the lowest concentration found to suppress growth. Read a low MIC as inhibition by little substance. For orientation: melting point means the temperature of the solid-liquid transition.

Take `CNC(=O)[C@H]1CN(c2ccc3c(c2)C(F)(F)C(=O)N3C)C(=O)O1` [Example 1, (5R)-(−)-3-(3,3-Difluoro-2,3-dihydro-1-methyl-2-oxo-1H-indol-5-yl)-N-methyl-2-oxo-5-oxazolidinecarboxamide]: the melting point lay within 242.5 to 245 °C. This compound displayed an MIC in data set [1] of 2 µg/mL (≈ 6.15 µM). It took 2 µg/mL (≈ 6.15 µM) to inhibit growth in data set [2] (MIC).

Take `CN1C(=O)C(F)(F)c2cc(N3C[C@H](C(N)=O)OC3=O)ccc21` [Example 2, (5R)-(−)-3-(3,3-difluoro-2,3-dihydro-1-methyl-2-oxo-1H-indol-5-yl)-2-oxo-5-oxazolidinecarboxamide]: the melting point is 274 to 277 °C (dec.). In data set [1], this compound gave an MIC of 1 to 2 µg/mL (≈ 3.21 to 6.43 µM). The lowest concentration to inhibit growth in data set [2] (MIC) was 2 µg/mL (≈ 6.43 µM).

In the case of `CCN1C(=O)C(F)(F)c2cc(N3C[C@H](C(N)=O)OC3=O)ccc21` [Example 3, (5R)-(−)-3-(3,3-difluoro-2,3-dihydro-1-ethyl-2-oxo-1H-indol-5-yl)-2-oxo-5-oxazolidinecarboxamide], the melting point lay in the range of 201 to 203 °C. Moreover, the MIC in data set [1] came out at 4 µg/mL (≈ 12.3 µM). Besides, in data set [2], the MIC amounted to 8 µg/mL (≈ 24.6 µM).

On to `CCN1C(=O)C(F)(F)c2cc(N3C[C@H](C(=O)NC)OC3=O)ccc21` [Example 4, (5R)-(−)-3-(3,3-Difluoro-2,3-dihydro-1-ethyl-2-oxo-1H-indol-5-yl)-N-methyl-2-oxo-5-oxazolidinecarboxamide], for which the melting point is 211 to 213 °C. The same compound showed an MIC in data set [1] of 4 µg/mL (≈ 11.8 µM). In addition, in data set [2], inhibition of growth (MIC) required 8 µg/mL (≈ 23.6 µM).

In turn, `CC(=O)NC[C@H]1CN(c2ccc3c(c2)C(F)(F)C(=O)N3C)C(=O)O1` [Example 5, N-[[(5S)-(−)-3-(3,3-Difluoro-2,3-dihydro-1-methyl-2-oxo-1H-indol-5-yl)-2-oxo-5-oxazolidinyl]methyl]acetamide] displayed a melting point of 125 to 127 °C. The compound also gave an MIC in data set [1] of 1 µg/mL (≈ 2.95 µM). This compound also returned an MIC in data set [2] of 2 µg/mL (≈ 5.89 µM).

In turn, `CCN1C(=O)C(F)(F)c2cc(N3C[C@H](CNC(C)=O)OC3=O)ccc21` [Example 6, N-[[(5S)-(−)-3-(3,3-Difluoro-2,3-dihydro-1-ethyl-2-oxo-1H-indol-5-yl)-2-oxo-5-oxazolidinyl]methyl]acetamide] yielded a melting point of 139 to 141 °C. Moreover, the MIC in data set [1] came to 2 µg/mL (≈ 5.66 µM). For the same compound, the MIC in data set [2] was found to be 8 µg/mL (≈ 22.6 µM).
